Experimental data reported in patent US5567693A, “Method for inhibiting angiogenesis, proliferation of endothelial or tumor cells and tumor growth” (American Cyanamid Company, priority 1994, dated 1996).
Structures can show the parent of a compound that is named as a salt.

How the values were obtained:
[1] = system: Adult Bovine Aortic Endothelial (ABAE) cell line; experiment: Antiproliferative activity in ABAE cell line, PROTOCOL 1; type: cell-based; conditions: Bos taurus, PROTOCOL 1, 48 hours
Protocol: The antiproliferative activity of the compounds of Formula I in an Adult Bovine Aortic Endothelial (ABAE) cell line and in Human Tumor cell lines is evaluated in three similar assays that measure growth inhibition. The assays are identified as follows: PROTOCOL 1,2,and 3 are described in greater detail hereinbelow. In general, according to PROTOCOLS 1 and 2, the target ABAE and/or Human Tumor cells are exposed to the compounds of Formula I for 48 hours. PROTOCOL 3 exposes ABAE cells to the compounds for 4 days. A detailed description of the protocols is as follows: PROTOCOL 1 Antiproliferative Activity in Human Tumor and Adult Bovine Aortic Endothelial Cell Lines (ABAE) The antiproliferative activity of the compounds of Formula I of the present invention is evaluated in a panel comprised of human tumor cell lines and an adult bovine aortic endothelial cell line (ABAE). The human tumor cell lines are from All cell lines are maintained in log phase in RPMI 1640 media, supplemented with 5% fetal calf serum, penicillin/streptomycin and 2 mM L-glutamine. Cultures are renewed after 20 passages with cells from a fresh stock of batch-frozen early passage cells. Cell lines are routinely checked for mycoplasma contamination (Genprobe). In a laminar flow hood, cells (1-5×10^4) are plated into 96-well microtiter plates in a volume of 0.1 ml/well with a bulk microtiter dispenser (Denley). […] At this concentration, dimethylsulfoxide has no effect on cell growth. Compounds are added using a Tomtec dispenser which simultaneously dispenses from one 96-well plate, containing the drug dilutions, to the plates containing the cells. After two days of continuous drug exposure, 50% cold trichloroacetic acid (TCA) is added to 10% final concentration to fix the cells, and after 60 minutes at 4° C., the TCA is aspirated and the plates are washed 5 times with deionized water using a microtiter plate washer. The number of cells on the plate are quantitated using a protein dye-binding assay (Monks et al., 1991). A 0.4% solution of the dye, sulforhodamine B, in […] is added to the plates, and the plates are washed 5 times with 1% […] using the automatic plate washed. The bound stain is solubilized with 0.1 ml of 10 mM Tris base. The optical densities are read from an automatic spectrophotometric plate reader (Dynatech) directly to a main frame computer (VAX 8600). Positive controls, that include standard chemotherapeutic drugs (i.e., Adriamycin, Cisplatin, etc.), are included in every experiment. Background optical density measurements (complete media-cells, and complete media+drug-cells) are automatically subtracted from the appropriate control and test wells. Mean values and standard errors are determined from duplicate wells. A measure is also made of the optical density at time when the drugs are added. The number of cells after treatment (P), as % of control, is calculated for every concentration of drug, as follows: [formula] wherein: T is optical density measurement for treated cells after 48 hours; C is optical density measurement for untreated cells after 48 hours; Co is optical density measurement for cells at the time of drug addition. IC50 of growth inhibition is calculated from the sets of P values using the RS-1 data package (BBN Software). Table 1 presents the results depicting the antiproliferative activity of the compounds of Formula I against an Adult Bovine Aortic Endothelial cell line (ABAE), as evaluated by PROTOCOL 1 and 2. The results are presented in terms of IC50 and are as follows.

A2780/DDP = experiment: Antiproliferative activity in human tumor cell lines: A2780/DDP (ovarian); type: cell-based; conditions: PROTOCOL 1 and PROTOCOL 2, 48 hours
Protocol: The assays are identified as follows:
PROTOCOL 1,2,and 3 are described in greater detail hereinbelow. In general, according to PROTOCOLS 1 and 2, the target ABAE and/or Human Tumor cells are exposed to the compounds of Formula I for 48 hours. PROTOCOL 3 exposes ABAE cells to the compounds for 4 days. A detailed description of the protocols is as follows:
The antiproliferative activity of the compounds of Formula I of the present invention is evaluated in a panel comprised of human tumor cell lines and an adult bovine aortic endothelial cell line (ABAE). The human tumor cell lines are from
Cultures are renewed after 20 passages with cells from a fresh stock of batch-frozen early passage cells. Cell lines are routinely checked for mycoplasma contamination (Genprobe). In a laminar flow hood, cells (1-5×10^4) are plated into 96-well microtiter plates in a volume of 0.1 ml/well with a bulk microtiter dispenser (Denley). […] Compounds are added using a Tomtec dispenser which simultaneously dispenses from one 96-well plate, containing the drug dilutions, to the plates containing the cells. After two days of continuous drug exposure, 50% cold trichloroacetic acid (TCA) is added to 10% final concentration to fix the cells, and after 60 minutes at 4° C., the TCA is aspirated and the plates are washed 5 times with deionized water using a microtiter plate washer. […] A 0.4% solution of the dye, sulforhodamine B, in […] is added to the plates, and the plates are washed 5 times with 1% glacial acetic acid using the automatic plate washed. The bound stain is solubilized with 0.1 ml of 10 mM Tris base. The optical densities are read from an automatic spectrophotometric plate reader (Dynatech) directly to a main frame computer (VAX 8600).
Positive controls, that include standard chemotherapeutic drugs (i.e., Adriamycin, Cisplatin, etc.), are included in every experiment.
Background optical density measurements (complete media-cells, and complete media+drug-cells) are automatically subtracted from the appropriate control and test wells. Mean values and standard errors are determined from duplicate wells. A measure is also made of the optical density at time when the drugs are added. The number of cells after treatment (P), as % of control, is calculated for every concentration of drug, as follows: [formula] wherein: T is optical density measurement for treated cells after 48 hours;
C is optical density measurement for untreated cells after 48 hours;
Co is optical density measurement for cells at the time of drug addition.
IC50 of growth inhibition is calculated from the sets of P values using the RS-1 data package (BBN Software).
The antiproliferative activity of the compounds of Formula I is evaluated in a panel comprised of human tumor cell lines and an adult bovine aortic cell line (ABAE) as listed in PROTOCOL 1. This assay is a modification of PROTOCOL 1. The modifications include:
1) each concentration for each compound is tested in a single well;
2) compounds are tested at 20, 4, 0.8, 0.16 microgram/ml and additionally in some experiments at 100 and 0.32 microgram/ml;
3) samples are pipetted into a 96-well plate for each of the cell lines by a Beckman Biomek 1000 SL robot;
4) after fixing with TCA each well is washed with 0.35 ml distilled water twice, not five times;
5) after staining with sulforhodamine B each well is washed 3 times, not five times;
6) the growth inhibition (I) as % of control, is calculated using the RS-1 data package (BBN Software), for every concentration of drug, as follows: [formula] wherein: T is optical density measurement for treated cells after 48 hours;
7) IC50 of growth inhibition is determined graphically from dose response curves, as is known in the art.

SMILES	IC50 [1]	IC50 (A2780/DDP)
CCCCCNCC(=O)Nc1c(Cl)cc2c(c1O)C(=O)C1=C(O)[C@]3(O)C(=O)C(C(N)=O)=C(O)[C@@H](N(C)C)C3CC1C2 (stereo partly drawn) [Example 6, [4S-(4α, 12aα)]-8-Chloro-4-(dimethylamino)-1,4,4a,5,5a,6,11,12a-octahydro-3,10,12,12a-tetrahydroxy-1,11-dioxo-9-[[(pentylamino)acetyl]amino]-2-naphthacenecarboxamide dihydrochloride]	0.6 mg/L	0.7 mg/L
CN(C)c1c(Cl)cc(O)c2c1CC1CC3[C@H](N(C)C)C(O)=C(C(N)=O)C(=O)[C@@]3(O)C(O)=C1C2=O (stereo partly drawn) [Example 11, [4S-(4α,12aα)]-8-Chloro-4,7-bis(dimethylamino)-1,4,4a,5,5a,6,11,12a-octahydro-3,10,12,12a-tetrahydroxy-1,11-dioxo-2-naphthacenecarboxamide sulfate]	3 mg/L	3.85 mg/L
CCCNCC(=O)Nc1c(Cl)cc2c(c1O)C(=O)C1=C(O)[C@]3(O)C(=O)C(C(N)=O)=C(O)[C@@H](N(C)C)C3CC1C2 (stereo partly drawn) [Example 5, [4S-(4α, 12aα)]-8-Chloro-4-(dimethylamino)-1,4,4a,5,5a, 6,11,12a-octahydro-3,10,12,12a-tetrahydroxy-1,11-dioxo-9-[[(propylamino)acetyl]amino]-2-naphthacenecarboxamide dihydrochloride]	2 mg/L	3 mg/L
CN(C)[C@@H]1C(O)=C(C(N)=O)C(=O)[C@@]2(O)C(O)=C3C(=O)c4c(cc(Cl)c(NC(=O)CN5CCCC5)c4O)CC3CC12 (stereo partly drawn) [Example 9, [7S-(7α,10aα)]-N-[9-(Aminocarbonyl)-3-chloro-7-(dimethylamino)-5,5a,6,6a,7,10,10a,12-octahydro-1,8,10a,11-tetrahydroxy-10,12-dioxo-2-naphthacenyl]-1-pyrrolidineacetamide dihydrochloride]	2.5 mg/L	1 mg/L
CN(C)[C@@H]1C(O)=C(C(N)=O)C(=O)[C@@]2(O)C(O)=C3C(=O)c4c(cc(Cl)c(NC(=O)CN5CCCCC5)c4O)CC3CC12 (stereo partly drawn) [Example 10, 7S-(7α,10aα)]-N-[9-(Aminocarbonyl)-3-chloro-7-(dimethylamino)-5,5a,6,6a,7,10,10a,12-octahydro-1,8,10a,11-tetrahydroxy-10,12-dioxo-2-naphthacenyl]-1-piperidineacetamide dihydrochloride]	0.7 mg/L	0.6 mg/L
CN(C)[C@@H]1C(O)=C(C(N)=O)C(=O)[C@@]2(O)C(O)=C3C(=O)c4c(cc(Cl)c(NC(=O)CNCC5CC5)c4O)CC3CC12 (stereo partly drawn) [Example 8, [4S-(4α,12aα)]-8-Chloro-9-[[(cyclopropylmethylamino)-acetyl]amino]4-(dimethylamino)-1,4,4a,5,5a,6,11,12a-octahydro-3,10,12,12a-tetrahydroxy-1,11-dioxo-2-naphthacenecarboxamide dihydrochloride]	2 mg/L	2.5 mg/L
CNCC(=O)Nc1c(Cl)cc2c(c1O)C(=O)C1=C(O)[C@]3(O)C(=O)C(C(N)=O)=C(O)[C@@H](N(C)C)C3CC1C2 (stereo partly drawn) [Example 7, [4S-(4α, 12aα)]-8-Chloro-4-(dimethylamino)-1,4,4a,5,5a,6,11,12a-octahydro-3,10,12,12a-tetrahydroxy-1,11-dioxo-9-[[(methylamino)acetyl]amino]-2-naphthacenecarboxamide dihydrochloride]	3.3 mg/L	3.8 mg/L
CCCCNCC(=O)Nc1c(Cl)cc2c(c1O)C(=O)C1=C(O)[C@]3(O)C(=O)C(C(N)=O)=C(O)[C@@H](N(C)C)C3CC1C2 (stereo partly drawn) [Example 4, [4S-(4α, 12aα)]-9-[[(Butylamino)acetyl]amino]-8-chloro-4-(dimethylamino) -1,4,4a,5,5a,6,11,12a-octahydro-3,10,12,12a-tetrahydroxy-1,11-dioxo-2-naphthacenecarboxamide dihydrochloride]	2.3 mg/L	2.8 mg/L
CN(C)CC(=O)Nc1c(Cl)cc2c(c1O)C(=O)C1=C(O)[C@]3(O)C(=O)C(C(N)=O)=C(O)[C@@H](N(C)C)C3CC1C2 (stereo partly drawn) [Example 3, [4S-(45, 12aα)]-8-Chloro-4-(dimethylamino)-9[[(dimethylamino)acetyl]amino]-1,4,4a,5,5a,6,11,12a-octahydro-3,10,12,12a-tetrahydroxy-1,11-dioxo-2-naphthacenecarboxamide disulfate]	2.2 mg/L	2.5 mg/L
